In brackets after ≈: the same amount, converted by molar mass.
How the values were obtained:
[1] = test system: Mycobacterium tuberculosis; assay: Antitubercular activity against Mycobacterium tuberculosis H37Rv ATCC 27294 assessed as bacterial growth inhibition incubated for 7 days in 7H9 medium by alamar blue staining based microplate fluorometric analysis; format: functional; conditions: H37Rv ATCC 27294, 168 h, time 7 day
[2] = Cytotoxicity against African green monkey Vero cells assessed as reduction in cell viability incubated for 72 hrs by MTT assay; format: toxicity, cell-based; conditions: chlorocebus sabaeus
[3] = Water solubility of the compound in 80% acetronitrile/20% water meausred after 24 hrs by HPLC-UV analysis; format: physicochemical; conditions: 80% acetonitrile/20% water
[4] = Acute toxicity in female ICR mouse assessed as change in body weight at 1000 mg/kg, po administered as single dose measured for 7 days; format: organism-based; conditions: in vivo, 168 h, time 7 day
[5] = Acute toxicity in female ICR mouse assessed as animal death at 1000 mg/kg, po administered as single dose measured for 7 days; format: organism-based; conditions: in vivo, 168 h, time 7 day
[6] = Acute toxicity in female ICR mouse assessed as lethal dose administered as single oral dose measured for 7 days; conditions: in vivo, time 7 day
[7] = Tmax in female ICR mouse at 25 mg/kg, po administered as single dose measured upto 24 hrs by HPLC analysis; format: ADME, organism-based; conditions: in vivo
[8] = Cmax in female ICR mouse at 25 mg/kg, po administered as single dose measured upto 24 hrs by HPLC analysis; format: ADME, organism-based; conditions: in vivo
[9] = Half life in female ICR mouse at 25 mg/kg, po administered as single dose measured upto 24 hrs by HPLC analysis; format: ADME, organism-based; conditions: in vivo
hERG (KCNH2) = hERG (KCNH2) (Homo sapiens, UniProt Q12809); assay: Inhibition of human ERG expressed in HEK293 cells at 10 uM by electrophysiological method relative to control; format: toxicity, cell-based; conditions: HEK293 cells expressing hERG
[10] = AUC (0 to infinity) in female ICR mouse at 25 mg/kg, po administered as single dose measured upto 24 hrs by HPLC analysis; format: ADME, organism-based; conditions: in vivo
[11] = Water solubility of the compound in 60% acetronitrile/40% water meausred after 24 hrs by HPLC-UV analysis; format: physicochemical; conditions: 60% acetonitrile/40% water

Sequence of hERG (KCNH2) (Q12809 whole entry): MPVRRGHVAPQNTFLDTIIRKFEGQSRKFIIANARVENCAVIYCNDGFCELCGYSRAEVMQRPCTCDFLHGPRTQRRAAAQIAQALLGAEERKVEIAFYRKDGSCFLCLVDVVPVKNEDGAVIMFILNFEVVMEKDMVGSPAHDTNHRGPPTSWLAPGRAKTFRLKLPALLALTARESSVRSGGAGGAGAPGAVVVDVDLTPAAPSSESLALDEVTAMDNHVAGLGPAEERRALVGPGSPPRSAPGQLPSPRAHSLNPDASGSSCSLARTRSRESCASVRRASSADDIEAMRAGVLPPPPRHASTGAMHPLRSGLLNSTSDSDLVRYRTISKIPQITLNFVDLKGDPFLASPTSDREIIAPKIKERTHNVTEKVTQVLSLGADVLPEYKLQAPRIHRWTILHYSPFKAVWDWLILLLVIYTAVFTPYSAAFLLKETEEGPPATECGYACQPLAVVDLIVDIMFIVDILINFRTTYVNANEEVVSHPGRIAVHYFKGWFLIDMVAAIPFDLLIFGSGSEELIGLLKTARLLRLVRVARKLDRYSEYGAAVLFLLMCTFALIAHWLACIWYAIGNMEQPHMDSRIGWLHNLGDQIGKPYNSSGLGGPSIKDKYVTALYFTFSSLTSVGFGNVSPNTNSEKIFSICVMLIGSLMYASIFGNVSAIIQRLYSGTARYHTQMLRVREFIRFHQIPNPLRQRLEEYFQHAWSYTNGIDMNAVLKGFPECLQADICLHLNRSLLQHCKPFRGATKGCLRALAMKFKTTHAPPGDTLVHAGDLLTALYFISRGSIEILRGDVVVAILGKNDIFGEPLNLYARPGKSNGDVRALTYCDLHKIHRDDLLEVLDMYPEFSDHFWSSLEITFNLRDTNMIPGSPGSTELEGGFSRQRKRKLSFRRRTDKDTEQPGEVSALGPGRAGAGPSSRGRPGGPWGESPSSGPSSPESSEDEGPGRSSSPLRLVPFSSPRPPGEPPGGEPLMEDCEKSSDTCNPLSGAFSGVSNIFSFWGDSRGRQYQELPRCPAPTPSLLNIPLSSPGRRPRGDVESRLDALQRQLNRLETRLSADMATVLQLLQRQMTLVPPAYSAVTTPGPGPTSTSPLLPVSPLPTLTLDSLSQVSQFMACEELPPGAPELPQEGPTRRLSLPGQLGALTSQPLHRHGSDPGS

## NNC(=O)c1ccncc1 [ISONIAZID]
[1]
  MIC: 0.342 µM (≈ 0.0469 µg/mL)

## CC(C)(C)OC(=O)CNC(=O)CON=C1CCC(CN2CCN(c3nc(=O)c4cc(C(F)(F)F)cc([N+](=O)[O-])c4s3)CC2)CC1 (configuration not stated)
[1]
  MIC: 0.044 µM (≈ 0.0289 µg/mL)
[2]
  CC50 at 72 h: > 98 µM

## CC(C)(C)OC(=O)NCCON=C1CCC(CN2CCN(c3nc(=O)c4cc(C(F)(F)F)cc([N+](=O)[O-])c4s3)CC2)CC1 (configuration not stated)
[3]
  solubility at 24 h: 2.4 µg/mL (≈ 3.82 µM)
[1]
  MIC: 0.033 µM (≈ 0.0207 µg/mL)
[2]
  CC50 at 72 h: > 102 µM

## O=C(O)CON=C1CCC(CN2CCN(c3nc(=O)c4cc(C(F)(F)F)cc([N+](=O)[O-])c4s3)CC2)CC1 (configuration not stated)
[4]
  Activity: Toxic
[5]
  Activity: Non-Toxic
[6]
  LD50 at 168 h: > 1000 mg/kg
[3]
  solubility at 24 h: 1200 µg/mL (≈ 2210 µM)
[1]
  MIC: < 0.029 µM
[7]
  Tmax: 0.33 h
[2]
  CC50 at 72 h: > 118 µM
[8]
  Cmax: 770 ng/mL
[9]
  half-life: 3.06 h
hERG (KCNH2)
  inhibition at 10 µM: 5.8%
[10]
  AUC(0-inf): 1410 ng·h/mL

## O=C(O)CCON=C1CCC(CN2CCN(c3nc(=O)c4cc(C(F)(F)F)cc([N+](=O)[O-])c4s3)CC2)CC1 (configuration not stated)
[1]
  MIC: 0.214 µM (≈ 0.119 µg/mL)
[2]
  CC50 at 72 h: > 115 µM

## O=C(O)CNC1CCC(CN2CCN(c3nc(=O)c4cc(C(F)(F)F)cc([N+](=O)[O-])c4s3)CC2)CC1 (configuration not stated)
[1]
  MIC: > 18.9 µM
[2]
  CC50 at 72 h: > 121 µM

## CC(C)(C)OC(=O)CNC(=O)CCON=C1CCC(CN2CCN(c3nc(=O)c4cc(C(F)(F)F)cc([N+](=O)[O-])c4s3)CC2)CC1 (configuration not stated)
[1]
  MIC: < 0.026 µM
[2]
  CC50 at 72 h: > 95 µM

## CON=C1CCC(CN2CCN(c3nc(=O)c4cc(C(F)(F)F)cc([N+](=O)[O-])c4s3)CC2)CC1 (configuration not stated)
[3]
  solubility at 24 h: 1.6 µg/mL (≈ 3.2 µM)
[1]
  MIC: < 0.035 µM
[7]
  Tmax: 0.69 h
[8]
  Cmax: 8370 ng/mL
[9]
  half-life: 5.24 h
[10]
  AUC(0-inf): 16900 ng·h/mL

## C[C@H](NC(=O)C(C)(C)ON=C1CCC(CN2CCN(c3nc(=O)c4cc(C(F)(F)F)cc([N+](=O)[O-])c4s3)CC2)CC1)C(=O)O (some centres not stated)
[1]
  MIC: 1.33 µM (≈ 0.853 µg/mL)

## C[C@H](NC(=O)C(C)(C)ON=C1CCC(CN2CCN(c3nc(=O)c4cc(C(F)(F)F)cc([N+](=O)[O-])c4s3)CC2)CC1)C(=O)OC(C)(C)C (some centres not stated)
[1]
  MIC: < 0.023 µM
[2]
  CC50 at 72 h: > 92 µM

## CO[C@H]1/C=C/O[C@@]2(C)Oc3c(C)c(O)c4c(O)c(c(/C=N/N5CCN(C)CC5)c(O)c4c3C2=O)NC(=O)/C(C)=C\C=C\[C@H](C)[C@H](O)[C@@H](C)[C@@H](O)[C@@H](C)[C@H](OC(C)=O)[C@@H]1C [RIFAMPIN]
[1]
  MIC: 0.04 µM (≈ 0.0329 µg/mL)

## O=C(O)CNC(=O)CCON=C1CCC(CN2CCN(c3nc(=O)c4cc(C(F)(F)F)cc([N+](=O)[O-])c4s3)CC2)CC1 (configuration not stated)
[1]
  MIC: 0.338 µM (≈ 0.208 µg/mL)
[2]
  CC50 at 72 h: > 104 µM

## O=c1nc(N2CCN(CC3CCCCC3)CC2)sc2c([N+](=O)[O-])cc(C(F)(F)F)cc12 [MACOZINONE]
[3]
  solubility at 24 h: 1.1 µg/mL (≈ 2.41 µM)
[1]
  MIC: < 0.035 µM
[7]
  Tmax: 2 h
[2]
  CC50 at 72 h: > 140 µM
[8]
  Cmax: 295 ng/mL
[9]
  half-life: 6.43 h
[10]
  AUC(0-inf): 2310 ng·h/mL

## C[C@H](NC(=O)CON=C1CCC(CN2CCN(c3nc(=O)c4cc(C(F)(F)F)cc([N+](=O)[O-])c4s3)CC2)CC1)C(=O)O (some centres not stated)
[1]
  MIC: 2.9 µM (≈ 1.79 µg/mL)

## CC(C)(C)OC(=O)CNC(=O)C(C)(C)ON=C1CCC(CN2CCN(c3nc(=O)c4cc(C(F)(F)F)cc([N+](=O)[O-])c4s3)CC2)CC1 (configuration not stated)
[3]
  solubility at 24 h: 4 µg/mL (≈ 5.84 µM)
[1]
  MIC: 0.086 µM (≈ 0.0589 µg/mL)
[2]
  CC50 at 72 h: > 94 µM

## C[C@H](NC(=O)CON=C1CCC(CN2CCN(c3nc(=O)c4cc(C(F)(F)F)cc([N+](=O)[O-])c4s3)CC2)CC1)C(=O)OC(C)(C)C (some centres not stated)
[1]
  MIC: 0.181 µM (≈ 0.121 µg/mL)
[2]
  CC50 at 72 h: > 95 µM

## CC(C)(ON=C1CCC(CN2CCN(c3nc(=O)c4cc(C(F)(F)F)cc([N+](=O)[O-])c4s3)CC2)CC1)C(=O)NCC(=O)O (configuration not stated)
[3]
  solubility at 24 h: 530 µg/mL (≈ 843 µM)
[1]
  MIC: 0.653 µM (≈ 0.41 µg/mL)

## NCCON=C1CCC(CN2CCN(c3nc(=O)c4cc(C(F)(F)F)cc([N+](=O)[O-])c4s3)CC2)CC1 (configuration not stated)
[4]
  Activity: Toxic
[5]
  Activity: Non-Toxic
[6]
  LD50 at 168 h: > 1000 mg/kg
[1]
  MIC: 0.091 µM (≈ 0.0481 µg/mL)
[7]
  Tmax: 1 h
[8]
  Cmax: 798 ng/mL
[9]
  half-life: 3.6 h
[11]
  solubility at 24 h: > 2000 µg/mL
hERG (KCNH2)
  inhibition at 10 µM: 5.66%
[10]
  AUC(0-inf): 3840 ng·h/mL

## CC(C)(ON=C1CCC(CN2CCN(c3nc(=O)c4cc(C(F)(F)F)cc([N+](=O)[O-])c4s3)CC2)CC1)C(=O)O (configuration not stated)
[3]
  solubility at 24 h: 490 µg/mL (≈ 857 µM)
[1]
  MIC: 0.114 µM (≈ 0.0652 µg/mL)
[2]
  CC50 at 72 h: > 112 µM

## COC(=O)CNC1CCC(CN2CCN(c3nc(=O)c4cc(C(F)(F)F)cc([N+](=O)[O-])c4s3)CC2)CC1 (configuration not stated)
[1]
  MIC: 1.05 µM (≈ 0.573 µg/mL)

## O=C(O)CNC(=O)CON=C1CCC(CN2CCN(c3nc(=O)c4cc(C(F)(F)F)cc([N+](=O)[O-])c4s3)CC2)CC1 (configuration not stated)
[1]
  MIC: 1.54 µM (≈ 0.925 µg/mL)

## CC(C)(C)OC(=O)CCON=C1CCC(CN2CCN(c3nc(=O)c4cc(C(F)(F)F)cc([N+](=O)[O-])c4s3)CC2)CC1 (configuration not stated)
[1]
  MIC: < 0.026 µM
[2]
  CC50 at 72 h: > 104 µM

From ChEMBL document CHEMBL6127042, “Design, synthesis and antimycobacterial activity of novel benzothiazinones with improved water solubility” (Eur J Med Chem, 2024)
